Laboratory results from article PMC9230803, “Synthesis and Antiviral Properties against SARS-CoV-2 of Epoxybenzooxocino[4,3-b]Pyridine Derivatives” (Molecules, 2022).
Values after ≈ are worked out from the molar mass of the structure shown. Read-outs that look alike come from different tables or passages of the source.

Legend:
Vero E6 cells = assay: cells; assay type: cell-based; details: Chlorocebus sabaeus, Vero C1008, upper limit of concentrations tested 200 µg/mL, read-out: IC50 (the source's name)
SARS-CoV-2 virus = assay: microbe, parasite or virus in culture; assay type: cell-based; details: for inhibition of virus-induced CPE development / virus replication (in words): any concentration up to the tested limit of 200 µg/mL; for selectivity index (SI): IC50/EC50 in Vero E6 cells
[1] = cytotoxicity, uninfected Vero E6 cells, MTT
[2] = Severe acute respiratory syndrome coronavirus 2, Vero C1008, SARS-CoV-2 in Vero E6 cells, CPE-positive wells reduced by half, upper limit tested 200 µg/mL, read-out: EC50
[3] = SARS-CoV-2 in Vero E6 cells, CPE-positive wells reduced by half, upper limit tested 200 µg/mL

Row | Compound | CC50 (Vero E6 cells; [1]) [µg/mL] | EC50 (SARS-CoV-2 virus; [2]) [µg/mL] | inhibition of virus-induced CPE development / virus replication (in words) (SARS-CoV-2 virus) | CC50 (Vero E6 cells; […]) [µg/mL] | EC50 (SARS-CoV-2 virus; Severe acute respiratory syndrome coronavirus 2, Vero C1008) [µg/mL] | wells presenting the CPE (SARS-CoV-2 virus; 6a at 0.82 μg/mL, ten wells per concentration) | wells showing the CPE (SARS-CoV-2 virus; 6a at 2.47 μg/mL, ten wells per concentration) | selectivity index (SI) (SARS-CoV-2 virus) | EC50 (SARS-CoV-2 virus; [3]) [µg/mL]
1 | CC(=O)c1cc2c(nc1C)CC1OC2(C)Oc2ccccc21 (stereo not shown) [Compound 3, 1-(2,5-dimethyl-11,12-dihydro-5H-5,11-epoxybenzo[7,8]oxocino[4,3-b]pyridin-3-yl)ethan-1-one] | 131 (≈ 444 µM) | > 200 | did not affect the development of CPE | – | – | – | – | – | –
2 | CC(=NNC(=O)c1ccncc1)c1cc2c(nc1C)CC1OC2(C)Oc2ccccc21 (stereo not shown) [Compound 4a, (E,Z)-N′-(1-(2,5-dimethyl-11,12-dihydro-5H-5,11-epoxybenzo[7,8]oxocino[4,3-b]pyridin-3-yl)ethylidene)isonicotinohydrazide] | > 200 | > 200 | did not affect the development of CPE | – | – | – | – | – | –
3 | C/C(=N\NC(=O)c1ccccc1O)c1cc2c(nc1C)CC1OC2(C)Oc2ccccc21 (stereo not shown) [Compound 4b, (E)-N′-(1-(2,5-dimethyl-11,12-dihydro-5H-5,11-epoxybenzo[7,8]oxocino[4,3-b]pyridin-3-yl)ethylidene)-2-hydroxybenzohydrazide] | > 200 | > 200 | did not affect the development of CPE | – | – | – | – | – | –
4 | Cc1nc2c(cc1C(=O)/C=C(\O)C(=O)O)C1(C)Oc3ccccc3C(C2)O1 (stereo not shown) [Compound 5, (Z)-4-(2,5-dimethyl-11,12-dihydro-5H-5,11-epoxybenzo[7,8]oxocino[4,3-b]pyridin-3-yl)-2-hydroxy-4-oxobut-2-enoic acid] | – | – | did not affect the development of CPE | > 200 | > 200 | – | – | – | –
5 | Cc1nc2c(cc1C(=O)/C=C1\Nc3ccccc3NC1=O)C1(C)Oc3ccccc3C(C2)O1 (stereo not shown) [Compound 6a, (Z)-3-(2-(2,5-dimethyl-11,12-dihydro-5H-5,11-epoxybenzo[7,8]oxocino[4,3-b]pyridin-3-yl)-2-oxoethylidene)-3,4-dihydroquinoxalin-2(1H)-one] | 6 (≈ 13.7 µM) | 2.23 (≈ 5.07 µM) | inhibition of CPE development was found | – | – | Eight of ten | one in ten | 2.7 | 2.2 (≈ 5.01 µM)
6 | Cc1nc2c(cc1C(=O)/C=C1\Nc3ccccc3OC1=O)C1(C)Oc3ccccc3C(C2)O1 (stereo not shown) [Compound 6b, (Z)-3-(2-(2,5-dimethyl-11,12-dihydro-5H-5,11-epoxybenzo[7,8]oxocino[4,3-b]pyridin-3-yl)-2-oxoethylidene)-3,4-dihydro-2H-benzo[b][1,4]oxazin-2-one] | > 200 | > 200 | did not affect the development of CPE | – | – | – | – | – | –
7 | Cc1nc2c(cc1C(=O)/C=C1\Nc3ccc([N+](=O)[O-])cc3OC1=O)C1(C)Oc3ccccc3C(C2)O1 (stereo not shown) [Compound 6c, (Z)-3-(2-(2,5-dimethyl-11,12-dihydro-5H-5,11-epoxybenzo[7,8]oxocino[4,3-b]pyridin-3-yl)-2-oxoethylidene)-7-nitro-3,4-dihydro-2H-benzo[b][1,4]oxazin-2-one] | > 200 | > 200 | did not affect the development of CPE | – | – | – | – | – | –
8 | CCN(CC)CCOc1ccc2c(c1)C(=O)c1cc(OCCN(CC)CC)ccc1-2.Cl [Tilorone, 2,7-bis[2-(diethylamino)ethoxy]fluoren-9-one hydrochloride, reference compound] | – | 4.29 | – | – | – | – | – | 1.8 | 4.3
